Read-outs that look alike come from different tables or passages of the source.
Experiments:
[1] = system: fibrin-induced microglia activation; test: Image-based assay of fibrin-induced microglia activation (HTS and dose response); assay type: cell-based, rat; conditions: for inhibition at 10 µM: Rattus norvegicus, Microglia, read-out: Fibrin % inhibition
[2] = system: LPS-induced microglia activation; test: Image-based assay of LPS-induced microglia activation (HTS and dose response); assay type: cell-based, rat; conditions: for inhibition at 10 µM: Rattus norvegicus, Microglia, read-out: LPS % inhibition
[3] = system: fibrin- and LPS-induced microglia activation; test: cells; assay type: cell-based, rat
primary rat microglia [4] = test: Cell toxicity (dead cells, size <150 μm2) in LPS assay
primary rat microglia [5] = test: Cell toxicity (dead cells, size <150 μm2) in coated fibrin (cFib) assay;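 further: share of dead cells sized under 150 µm2 at 10 µM in fibrin-stimulated microglia HTS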
[6] = primary HTS, 10 μM, fibrin-stimulated primary microglia
[7] = primary HTS, 10 μM, LPS-stimulated primary microglia
[8] = primary HTS, 10 μM, LPS assay, dead cells size <150 μm2
[9] = primary HTS, 10 μM, fibrin assay, dead cells size <150 μm2
[10] = primary microglia HTS, 10 μM, fibrin-stimulated, cell size >800 μm^2 as marker of activation
[11] = primary microglia HTS, 10 μM, LPS-stimulated, cell size >800 μm^2 as marker of activation
[12] = HTS of 1907 compounds, quadrant by fibrin and LPS inhibition
[13] = primary microglia HTS, 10 μM, LPS assay, cell size <150 μm^2 as marker of toxicity
[14] = primary microglia HTS, 10 μM, fibrin assay, cell size <150 μm^2 as marker of toxicity
[15] = primary microglia HTS, fibrin stimulation, increased cell size (>800 μm^2) as marker of activation
[16] = 48 h, primary microglia HTS, LPS stimulation, increased cell size (>800 μm^2) as marker of activation
[17] = quadrant by fibrin and LPS inhibition in HTS of 1907 compounds
[18] = primary microglia HTS, LPS stimulation, decreased size (<150 μm^2) as marker of toxicity
[19] = primary microglia HTS, fibrin stimulation, decreased size (<150 μm^2) as marker of toxicity
[20] = primary microglia HTS, fibrin stimulation, activation = cell size >800 μm2
[21] = 48 h, primary microglia HTS, LPS stimulation, activation = cell size >800 μm2
[22] = primary microglia HTS, LPS stimulation, toxicity = cell size <150 μm2
[23] = primary microglia HTS, fibrin stimulation, toxicity = cell size <150 μm2

| SMILES | inhibition at 10 µM [1, 10] | inhibition at 10 µM [2, 11] | Quadrant (FIG. 5b) [3, 12] | LPS % cell toxicity (primary rat microglia [4]; [13]) | Fibrin % cell toxicity (primary rat microglia [5]; [14]) | Quadrant (FIG. 5b) [3, 17] | further results |
| --- | --- | --- | --- | --- | --- | --- | --- |
| C=CCN1C[C@H](C(=O)N(CCCN(C)C)C(=O)NCC)C[C@@H]2c3cccc4[nH]cc(c34)C[C@H]21 [Cabergoline] |  |  |  |  |  |  | inhibition at 10 µM [1, 6]: 20%; inhibition at 10 µM [2, 7]: 33%; Quadrant (FIG. 5b) ([3]; primary HTS, 10 μM): Q4; LPS % cell toxicity (primary rat microglia [4]; [8]): 1%; Fibrin % cell toxicity (primary rat microglia [5]; [9]): 1% |
| O=C1/C(=C/c2cccs2)CCC/C1=C\c1cccs1 [Tenylidone] | -9% | 15% | Q4 | 0% | 1% |  |  |
| CN(C)CCOC(=O)COc1ccc(Cl)cc1 [Meclofenoxate] |  |  |  |  |  | Q4 | inhibition at 10 µM [1, 15]: -23%; inhibition at 10 µM [2, 16]: 24%; LPS % cell toxicity (primary rat microglia [4]; [18]): 0%; Fibrin % cell toxicity (primary rat microglia [5]; [19]): 1% |
| COc1ccccc1O [Guaiacol] |  |  |  |  |  | Q4 | inhibition at 10 µM [1, 20]: -51%; inhibition at 10 µM [2, 21]: 11%; LPS % cell toxicity (primary rat microglia [4]; [22]): 0%; Fibrin % cell toxicity (primary rat microglia [5]; [23]): 0% |
| O=C1NCC2(CCN(CCc3ccccc3)CC2)O1 [Fenspiride] |  |  |  |  |  | Q4 | inhibition at 10 µM [1, 20]: -43%; inhibition at 10 µM [2, 21]: -1%; LPS % cell toxicity (primary rat microglia [4]; [22]): 0%; Fibrin % cell toxicity (primary rat microglia [5]; [23]): 1% |
| C[C@H]1COc2c(N3CCN(C)CC3)c(F)cc3c(=O)c(C(=O)O)cn1c23 [Levofloxacin] |  |  |  |  |  | Q4 | inhibition at 10 µM [1, 20]: 12%; inhibition at 10 µM [2, 21]: 31%; LPS % cell toxicity (primary rat microglia [4]; [22]): 0%; Fibrin % cell toxicity (primary rat microglia [5]; [23]): 1% |
| CCCCOc1ccc(CC(=O)NO)cc1 [Bufexamac] |  |  |  |  |  |  | inhibition at 10 µM [1, 6]: -2%; inhibition at 10 µM [2, 7]: 17%; Quadrant (FIG. 5b) ([3]; primary HTS, 10 μM): Q4; LPS % cell toxicity (primary rat microglia [4]; [8]): 0%; Fibrin % cell toxicity (primary rat microglia [5]; [9]): 1% |
| C[C@]12CC[C@H]3[C@@H](CC[C@@]45O[C@@H]4C(O)=C(C#N)C[C@]35C)[C@@H]1CC[C@@H]2O [Trilostane] | -24% | 11% | Q4 | 0% | 0% |  |  |
| CO[C@@H]1[C@@H](OC(N)=O)[C@@H](O)[C@H](Oc2ccc3c(O)c(NC(=O)c4ccc(O)c(CC=C(C)C)c4)c(=O)oc3c2C)OC1(C)C [Novobiocin] |  |  |  |  |  | Q4 | inhibition at 10 µM [1, 15]: -17%; inhibition at 10 µM [2, 16]: 8%; LPS % cell toxicity (primary rat microglia [4]; [18]): 0%; Fibrin % cell toxicity (primary rat microglia [5]; [19]): 0% |
| Nc1ccc(S(=O)(=O)NC(=O)c2ccccc2)cc1 [Sulfabenzamide] | -15% | 19% | Q4 | 1% | 1% |  |  |
| COc1cnc(NS(=O)(=O)c2ccc(N)cc2)nc1 [Sulfameter] | 4% | 11% | Q4 | 0% | 1% |  |  |
| CC1(C)OC(=O)C(OCC2CC2)=C1c1ccc(S(C)(=O)=O)cc1 [Firocoxib] |  |  |  |  |  | Q4 | inhibition at 10 µM [1, 20]: -10%; inhibition at 10 µM [2, 21]: 11%; LPS % cell toxicity (primary rat microglia [4]; [22]): 1%; Fibrin % cell toxicity (primary rat microglia [5]; [23]): 1% |
| CCCCC/C=C\CCC(=O)N[C@H]1[C@H](Oc2c3cc4cc2Oc2ccc(cc2Cl)[C@@H](O[C@@H]2O[C@H](CO)[C@@H](O)[C@H](O)[C@H]2NC(C)=O)[C@@H]2NC(=O)[C@H](NC(=O)[C@@H]4NC(=O)[C@H]4NC(=O)[C@@H](Cc5ccc(c(Cl)c5)O3)NC(=O)[C@H](N)c3ccc(O)c(c3)Oc3cc(O)cc4c3)c3ccc(O)c(c3)-c3c(O[C@H]4O[C@H](CO)[C@@H](O)[C@H](O)[C@@H]4O)cc(O)cc3[C@@H](C(=O)O)NC2=O)O[C@H](CO)[C@@H](O)[C@@H]1O [Teicoplanin [a(2-1) Shown]] |  |  | Q4 | 0% | 1% |  | Fibrin % inhibition [1, 10]: 43%; LPS % inhibition [2, 11]: 20% |
| Cc1c(C)c2c(c(C)c1O)CCC(C)(COc1ccc(CC3SC(=O)NC3=O)cc1)O2 (stereo not drawn) [Troglitazone] | -22% | 4% | Q4 | 0% | 1% |  |  |
| Cc1ccc(C(=O)C(C)CN2CCCCC2)cc1 (stereo not drawn) [Tolperisone] | -7% | 11% | Q4 | 0% | 1% |  |  |
